Here are results for 14 compounds from patent US20220030868A1, “FUNGICIDAL HALOMETHYL KETONES AND HYDRATES” (FMC CORPORATION, priority 2018, published 2022).

By pest or weed control is commonly meant how far the test organism was held down. A higher pest or weed control goes with a strong effect. The term melting point denotes the temperature, or range, at which the solid turns liquid.

The test system of data set [1] is Puccinia recondita f. sp. tritici. The experiment in a line: Test B: test suspension sprayed on wheat seedlings one day before inoculation with Puccinia recondita f. sp. tritici spores (wheat leaf rust), disease rating. As to conditions: 100 = 100% disease control, 0 = no control; for pest or weed control at 50 ppm: 50 ppm test suspension. The format is in vivo. The method in brief:
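Wheat seedlings were sprayed to run-off with compound suspended in 50/50 acetone/water containing 250 ppm PEG400, then inoculated with P. recondita f. sp. tritici spores the next day. Plants were held 24 h in saturated air at 20 °C, then 6 days in a growth chamber at 20 °C. Disease control was rated 0–100% relative to controls, with some entries run at 50 or 10 ppm.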

A further data set deals with Phakopsora pachyrhizi. The experiment in a line: Test A: test suspension sprayed on soybean seedlings one day before inoculation with Phakopsora pachyrhizi spores (Asian soybean rust), visual disease rating. It counts as in vivo. As to conditions: 100 = 100% disease control, 0 = no control; for pest or weed control at 10 ppm / pest or weed control at 50 ppm: Phakopsora pachyrhizi; for pest or weed control at 50 ppm: 50 ppm test suspension. An outline of the steps: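 Soybean seedlings were sprayed to run-off with test suspension (acetone 3% of volume, acetone/water 50/50, 250 ppm PEG400) and inoculated with rust spores one day later. Incubation: 24 h saturated atmosphere at 22° C, then 8 days growth chamber at 22° C; scores 0–100 relative to untreated controls.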

The test system of the next data set is Uncinula necator. Put plainly: Test C: test suspension sprayed on grape seedlings one day before inoculation with Uncinula necator spores (grape powdery mildew), disease rating. As to conditions: 50 ppm test suspension, 100 = 100% disease control; for pest or weed control at 50 ppm: Erysiphe necator. It counts as in vivo. An excerpt: General protocol for preparing test suspensions for Tests A-C: the test compounds were first dissolved in acetone in an amount equal to 3% of the final volume and then suspended at the desired concentration (in ppm) in acetone and purified water (50/50 mix by volume) containing 250 ppm of the surfactant PEG400 (polyhydric alcohol esters). The resulting test suspensions were then used in Tests A-C. The test solution was sprayed to the point of run-off on grape seedlings. The following day the seedlings were inoculated with a spore suspension of Uncinula necator (the causal agent of grape powdery mildew) and incubated in a growth chamber at 20° C. for 12 days, after which time disease ratings were made. Results for Tests A-C are given in Table A. In the Table, a rating of 100 indicates 100% disease control and a rating of 0 indicates no disease control (relative to the controls). An asterisk “*” or a double asterisk “**” next to the rating value indicates a 50 ppm or 10 ppm test suspension was used, respectively. A dash (-) indicates the compound was not tested.

Marks after values point to notes of the source that are not given here.

`O=C(NCC1CC1)c1csc(Cc2ccc(OCC3(C(F)(F)F)OCCO3)cc2)n1` [Compound 71, N-(cyclopropylmethyl)-2-[[4-[[2-(trifluoromethyl)-1,3-dioxolan-2-yl]methoxy]phenyl]-methyl]thiazole-4-carboxamide]: the melting point is 88 to 92 °C. The pest or weed control at 10 ppm in data set [1] (10 ppm test suspension) was found to be 96%. The same compound displayed a pest or weed control at 10 ppm in the data set on Phakopsora pachyrhizi (10 ppm test suspension) of 100%.
The compound `CCO/C(=C\Oc1ccc(Cn2cc(C(=O)OCc3ccccc3)cn2)cc1)C(F)(F)F` [Compound 186, phenylmethyl 1-[[4-[[(1Z)-2-ethoxy-3,3,3-trifluoro-1-propen-1-yl]oxy]phenyl]methyl]-1H-pyrazole-4-carboxylate] showed a melting point of 63 to 67 °C. In addition, the pest or weed control at 10 ppm in data set [1] (10 ppm test suspension) was 0%. In addition, the pest or weed control at 10 ppm in the data set on Phakopsora pachyrhizi (10 ppm test suspension) was 100%. For the same compound, the pest or weed control at 50 ppm with Uncinula necator is 100%.
On to `CCOC(=O)c1cnn(Cc2cccc(O/C=C(\OCC)C(F)(F)F)c2)c1` [Compound 265, ethyl 1-[[3-[[(1Z)-2-ethoxy-3,3,3-trifluoro-1-propen-1-yl]oxy]phenyl]methyl]-1H-pyrazole-4-carboxylate], for which the pest or weed control at 50 ppm in data set [1] is 0%; with Phakopsora pachyrhizi, 100%; in the data set with Uncinula necator it was 100%.
As for `CCOC(=O)c1cnn(Cc2ccc(O/C=C(\OC(C)C)C(F)(F)F)cc2)c1` [compound 57], the “Test B rating (disease control)” value in data set [1] (250 ppm test suspension) stood at 0%. The “Test A rating (disease control)” value in the data set with Phakopsora pachyrhizi (250 ppm test suspension) turned out to be 100%. Further, the “Test C rating (disease control)” value in the data set on Uncinula necator is recorded as 100* %.
For `CCOC(=O)c1cnn(Cc2ccc(OCC3(C(F)(F)F)OCCO3)cn2)c1` [compound 124], the pest or weed control at 50 ppm in data set [1] turned out to be 0%; with Phakopsora pachyrhizi it was 100%; in the data set on Uncinula necator, 100%.
Consider `CCO/C(=C\Oc1ccc(Cn2cc(C(=O)OC)cn2)cc1)C(F)(F)F` [compound 138], for which the “Test B rating (disease control)” value in data set [1] (10 ppm test suspension) worked out at 0%. For the same compound, the “Test A rating (disease control)” value in the data set with Phakopsora pachyrhizi (10 ppm test suspension) is recorded as 100%. For the same compound, the “Test C rating (disease control)” value in the data set with Uncinula necator was 100* %.
For `O=C(COC(=O)c1cnn(Cc2ccc(OCC3(C(F)(F)F)OCCO3)cc2)c1)c1ccccc1` [compound 170] the same measures were 0%, 100% and 100* %.
As for `C#CCOC(=O)c1cnn(Cc2ccc(O/C=C(\OCC)C(F)(F)F)cc2)c1` [compound 185], in data set [1] (10 ppm test suspension), the “Test B rating (disease control)” value is given as 0%. Further, the “Test A rating (disease control)” value in the data set with Phakopsora pachyrhizi (10 ppm test suspension) is recorded as 100%. In addition, the “Test C rating (disease control)” value in the data set with Uncinula necator was 100* %.
For `CCO/C(=C\Oc1ccc(Cn2cc(C(=O)OCC(C)=O)cn2)cc1)C(F)(F)F` [compound 216], the “Test B rating (disease control)” value in data set [1] (10 ppm test suspension) was 0%. Also, the “Test A rating (disease control)” value in the data set with Phakopsora pachyrhizi (10 ppm test suspension) stood at 100%. Moreover, the “Test C rating (disease control)” value with Uncinula necator was 100* %.
`CCCOC(=O)c1cnn(Cc2ccc(O/C=C(\OCC)C(F)(F)F)cc2)c1` [compound 217]: in data set [1] (10 ppm test suspension), the “Test B rating (disease control)” value is on record as 0%. Moreover, in the data set with Phakopsora pachyrhizi (10 ppm test suspension), the “Test A rating (disease control)” value is 100%. In addition, the “Test C rating (disease control)” value in the data set on Uncinula necator is on record as 100* %.
On to `CCO/C(=C\Oc1ccc(Cn2cc(C(=O)OCC(C)C)cn2)cc1)C(F)(F)F` [compound 219], for which the “Test B rating (disease control)” value in data set [1] (10 ppm test suspension) was determined as 0%. Also, in the data set on Phakopsora pachyrhizi (10 ppm test suspension), the “Test A rating (disease control)” value is listed as 100%. The “Test C rating (disease control)” value in the data set with Uncinula necator was 100* %.
For `CCO/C(=C\Oc1ccc(Cn2cc(C(=O)OCC3CC3)cn2)cc1)C(F)(F)F` [compound 220] the same measures were 0%, 100% and 100* %.
For `CCO/C(=C\Oc1ccc(Cn2cc(C(=O)OCCC#N)cn2)cc1)C(F)(F)F` [compound 245] the same measures were 0%, 100% and 98* %.
Turning to `CCO/C(=C\Oc1ccc(Cc2ncc(C(=O)NCC(F)F)s2)cc1)C(F)(F)F` [compound 276], the “Test B rating (disease control)” value in data set [1] (10 ppm test suspension) is 0%. The “Test A rating (disease control)” value in the data set on Phakopsora pachyrhizi (10 ppm test suspension) turned out to be 13%. In the data set on Uncinula necator, the “Test C rating (disease control)” value was 100* %.
